Test results published in US9795140B2, “Molecules having pesticidal utility, and intermediates, compositions, and processes, related thereto” (priority 2015, dated 2017).

Experiments:
Type in all cases: in vivo
[1] = tested on: Beet Armyworm (Spodoptera exigua, LAPHEG); test: Bioassay on Beet Armyworm (BAW), 128-well diet tray assay; settings: 168 h, 50 μg/cm^2 on artificial diet, second instar larvae, 25° C., five to seven days, average of eight wells, read-out: BAW % Control (or Mortality) rating
In short: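 Diet in each of eight wells received 50 μg/cm^2 of test molecule (90:10 acetone-water, dried), then one to five second-instar larvae were added. Mortality (%) was scored after five to seven days at 25° C. under 14:10 light-dark and averaged across the wells.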

[2] = tested on: Cabbage Looper (Trichoplusia ni, TRIPNI); test: Bioassay on Cabbage Looper (CL), 128-well diet tray assay; settings: 168 h, 50 μg/cm^2 on artificial diet, second instar larvae, 25° C., five to seven days, average of eight wells, read-out: CL % Control (or Mortality) rating
In short: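 Percent larval mortality, averaged across eight replicate wells, was scored after 5–7 days at 25 °C with a 14:10 photoperiod. Each well held 1 mL diet surface-treated at 50 μg/cm^2 with test molecule from a 90:10 acetone-water solution, then dried. Wells were infested with one to five second-instar cabbage loopers.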

[3] = tested on: Green Peach Aphid (Myzus persicae, MYZUPE); test: Bioassay on Green Peach Aphid (GPA), foliar spray on cabbage seedlings; settings: 72 h, 200 ppm spray on infested cabbage seedlings, three days, Abbott corrected % control, read-out: GPA % Control (or Mortality) rating
Procedure: Certain molecules disclosed in this document were tested against GPA using procedures described in the following example. In the reporting of the results, the “GPA & YFM Rating Table” was used (See Table Section).
Cabbage seedlings grown in 3-inch pots, with 2-3 small (3-5 cm) true leaves, were used as test substrate. The seedlings were infested with 20-50 GPA (wingless adult and nymph stages) one day prior to chemical application. Four pots with individual seedlings were used for each treatment. Test molecules (2 mg) were dissolved in 2 mL of acetone/methanol (1:1) solvent, forming stock solutions of 1000 ppm test molecule. The stock solutions were diluted 5× with 0.025% Tween 20 in water to obtain the solution at 200 ppm test molecule. A hand-held aspirator-type sprayer was used for spraying a solution to both sides of […] leaves until runoff. Reference plants (solvent check) were sprayed with the diluent only containing 20% by volume of acetone/methanol (1:1) solvent. Treated plants were held in a holding room for three days at approximately 25° C. and ambient relative humidity (RH) prior to grading. Evaluation was conducted by counting the number of live aphids per plant under a microscope. Percent control was measured using Abbott's correction formula (W. S. Abbott, “A Method of Computing the Effectiveness of an Insecticide” J. Econ. Entomol. 18 (1925), pp. 265-267) as follows. Corrected % Control=100*(X−Y)/X where X=No. of live aphids on solvent check plants and Y=No. of live aphids on treated plants. The results are indicated in the table entitled “Table ABC: Biological Results” (See Table Section).

[4] = tested on: Yellow Fever Mosquito (Aedes aegypti, AEDSAE); test: Bioassay on Yellow Fever Mosquito (YFM) larvae, 96-well plate; settings: about 1 day-old larvae, room temperature, 3 days, scored on mortality
In short: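 Aedes aegypti larvae (about 1 day old) in liver-powder water were added to plates dispensed from DMSO master plates (4000 ppm stock) diluted with 90:10 water/acetone; six replicate plates per master. Lidded plates were held at room temperature for 3 days, then each well was scored for mortality.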

Structure (SMILES)	mortality at 50 µg/cm2 [1] [%]	mortality at 50 µg/cm2 [2] [%]	mortality at 200 ppm [3] [%]	YFM % Control (or Mortality) rating [4]
C=CCONC(=O)c1cc(NC(=O)[C@H]2[C@H](c3ccc(Cl)c(Cl)c3)C2(Cl)Cl)ccc1Cl (relative stereo) [F14, trans-N-(Allyloxy)-2-chloro-5-(2,2-dichloro-3-(3,4-dichlorophenyl)cyclopropane-1-carboxamido)benzamide]	50 to 100	50 to 100	0 to 80	A (80-100)
O=C(NCC(F)F)c1cc(NC(=O)[C@H]2[C@H](c3cc(Cl)cc(Cl)c3)C2(Cl)Cl)ccc1Cl (relative stereo) [F48, trans-2-Chloro-5-(2,2-dichloro-3-(3,5-dichlorophenyl)cyclopropane-1-carboxamido)-N-(2,2-difluoroethyl)benzamide]	50 to 100	50 to 100	80 to 100	B (More than 0-Less than 80)
CC(C)CNC(=O)c1cc(NC(=O)[C@H]2[C@H](c3cc(Cl)cc(Cl)c3)C2(Cl)Cl)ccc1Cl (relative stereo) [F30, trans-2-chloro-5-(2,2-dichloro-3-(3,5-dichlorophenyl)cyclopropane-1-carboxamido)-N-isobutylbenzamide]	50 to 100	50 to 100	80 to 100	A (80-100)
O=C(NOCc1ccc(F)cc1)c1cc(NC(=O)C2C(c3cc(Cl)cc(Cl)c3)C2(Cl)Cl)ccc1Cl (stereo not drawn) [F17, trans-N-2-Chloro-5-(2,2-dichloro-3-(3,5-dichlorophenyl)cyclopropane-1-carboxamido)-N-((4-fluorobenzyl)oxy)benzamide]	50 to 100	50 to 100	0 to 80	A (80-100)
CN(CC(F)(F)F)C(=O)c1cc(NC(=O)[C@H]2[C@H](c3cc(Cl)cc(Cl)c3)C2(Cl)Cl)ccc1Cl (relative stereo) [F59, trans-2-Chloro-5-(2,2-dichloro-3-(3,5-dichlorophenyl)cyclopropane-1-carboxamido)-N-methyl-N-(2,2,2-trifluoroethyl)benzamide]	50 to 100	50 to 100	0 to 80	A (80-100)
C#CCNC(=O)c1cc(NC(=O)[C@H]2[C@H](c3cc(Cl)cc(Cl)c3)C2(Cl)Cl)ccc1Cl (relative stereo) [F47, trans-2-Chloro-5-(2,2-dichloro-3-(3,5-dichlorophenyl)cyclopropane-1-carboxamido)-N-(prop-2-yn-1-yl)benzamide]	50 to 100	50 to 100	80 to 100	A (80-100)
O=C(NCC1CC1)c1cc(NC(=O)[C@H]2[C@H](c3cc(Cl)cc(Cl)c3)C2(Cl)Cl)ccc1Cl (relative stereo) [F35, trans-2-Chloro-N-(cyclopropylmethyl)-5-(2,2-dichloro-3-(3,5-dichlorophenyl)cyclopropane-1-carboxamido)benzamide]	50 to 100	50 to 100	80 to 100	A (80-100)
N#CCCNC(=O)c1cc(NC(=O)[C@H]2[C@H](c3cc(Cl)cc(Cl)c3)C2(Cl)Cl)ccc1Cl (relative stereo) [F37, trans-2-Chloro-N-(2-cyanoethyl)-5-(2,2-dichloro-3-(3,5-dichlorophenyl)cyclopropane-1-carboxamido)benzamide]	50 to 100	50 to 100	0 to 80	A (80-100)
N#CCCCNC(=O)c1cc(NC(=O)[C@H]2[C@H](c3cc(Cl)cc(Cl)c3)C2(Cl)Cl)ccc1Cl (relative stereo) [F38, trans-2-Chloro-N-(3-cyanopropyl)-5-(2,2-dichloro-3-(3,5-dichlorophenyl)cyclopropane-1-carboxamido)benzamide]	50 to 100	50 to 100	80 to 100	A (80-100)
C[C@H](CSCC(F)(F)F)NC(=O)c1cc(NC(=O)C2C(c3cc(Cl)cc(Cl)c3)C2(Cl)Cl)ccc1Cl (stereo in doubt) [PF3, trans-2-Chloro-5-(2,2-dichloro-3-(3,5-dichlorophenyl)cyclopropane-1-carboxamido)-N—((R)-1-((2,2,2-trifluoroethyl)thio)propan-2-yl)benzamide]	50 to 100	50 to 100	80 to 100	B (More than 0-Less than 80)
O=C(NCCc1ccc(F)cc1)c1cc(NC(=O)C2C(c3cc(Cl)c(Cl)c(Cl)c3)C2(Cl)Cl)ccc1Cl (stereo not drawn) [F20, trans-N-2-Chloro-5-(2,2-dichloro-3-(3,4,5-trichlorophenyl)cyclopropane-1-carboxamido)-N-(4-fluorophenethyl)benzamide]	50 to 100	50 to 100	0 to 80	A (80-100)
COc1ccc(CNC(=O)c2cc(NC(=O)[C@H]3[C@H](c4cc(Cl)cc(Cl)c4)C3(Cl)Cl)ccc2Cl)c(OC)c1 (relative stereo) [F34, trans-2-Chloro-5-(2,2-dichloro-3-(3,5-dichlorophenyl)cyclopropane-1-carboxamido)-N-(2,4-dimethoxybenzyl)benzamide]	50 to 100	50 to 100	0	A (80-100)
